This assay addresses T1, Phosducin-like protein 3 (Homo sapiens, UniProt Q9H2J4).
T1 sequence (Q9H2J4 whole entry): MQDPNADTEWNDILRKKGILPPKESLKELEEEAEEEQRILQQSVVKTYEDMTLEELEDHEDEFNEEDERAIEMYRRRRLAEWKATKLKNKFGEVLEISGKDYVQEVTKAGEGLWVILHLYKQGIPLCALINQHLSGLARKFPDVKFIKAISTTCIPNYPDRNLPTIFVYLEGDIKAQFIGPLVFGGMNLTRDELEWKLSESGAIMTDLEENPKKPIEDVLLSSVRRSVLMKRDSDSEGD
The experiment in a line: NMR Screening Assay. The settings on record: pH 7.5; 27 °C. The text has this:
NMR-based screen of potential binders by using 1D Aliphatic 1H NMR experiment to investigate the potential role of the c-VIAF as a possible drug target viral infections validation and functional studies.

Data on seven compounds can be found in BindingDB's records for doi:10.1111/j.1747-0285.2008.00719.x (The Burnham Institute For Medical Research, 2008).

Bounds are passed on as bounds.

Usually Kd stands for a measure of binding affinity in units of concentration. High values mean weaker binding, low ones tighter binding.

For the compound `CCOC(=O)Cn1cnc2sc3c(c2c1=O)CCC3` [2-(1-keto-7,8-dihydro-6H-cyclopenta[2,3]thieno[2,4-d]pyrimidin-2-yl)acetic acid ethyl ester], the affinity, expressed as Kd, was 227 µM. In turn, `CCOC(=O)Cn1cnc2sc3c(c2c1=O)CCCC3` [BI-86-E6] gave a Kd of 16.5 µM.

With `CCOC(=O)C(CC)n1cnc2sc3c(c2c1=O)CCCC3` (configuration not stated) [BI-86-E8], the equilibrium dissociation constant (Kd) is > 1000 µM.

As for `CC(C)COC(=O)Cn1cnc2sc3c(c2c1=O)CCCC3` [BI-86-E11], the dissociation constant (Kd) is > 1000 µM.

Turning to `CCOC(=O)C(C)n1cnc2sc3c(c2c1=O)CCCC3` (configuration not stated) [BI-86-E12], the Kd is 76 µM. In the case of `O=C(Cn1cnc2sc3c(c2c1=O)CCCC3)OCc1ccccc1` [BI-86-F2], the Kd was > 1000 µM. In the case of `O=c1[nH]nnc2sc3c(c12)CCCC3` [BI-86-F3], the Kd is > 1000 µM.
